The supplement of paper PMC10307832

Columns and labels:
Test in all cases: relative viability (nuclei count vs DMSO), 5 days (fraction); higher = more cells survive
Daporinad + Pictilisib = compound: O=C(/C=C/c1cccnc1)NCCCCC1CCN(C(=O)c2ccccc2)CC1 [Daporinad] + CS(=O)(=O)N1CCN(Cc2cc3nc(-c4cccc5[nH]ncc45)nc(N4CCOCC4)c3s2)CC1 [Pictilisib] (partner 1 µM)
Outline: (§1)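 Cells from lung cancer lines were seeded into 1536-well plates and, one day later, dosed by pin tool. Treatments were either a single drug or a fixed dose of an anchor drug with five library-drug doses (not always all listed) in √10 steps. After 5 days, nuclei were stained in a one-step fixation (final 0.05% Triton X-100, 1% formaldehyde, 1 ug/ml Hoechst) and counted on 4× images, and relative viability is the treated-to-vehicle nuclei ratio, as the median of duplicate plates.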

Daporinad + Pemetrexed = compound: O=C(/C=C/c1cccnc1)NCCCCC1CCN(C(=O)c2ccccc2)CC1 [Daporinad] + Nc1nc2[nH]cc(CCc3ccc(C(=O)N[C@@H](CCC(=O)O)C(=O)O)cc3)c2c(=O)[nH]1 [Pemetrexed] (partner 0.2 µM)
Outline: as §1

R406 + Alpelisib = compound: COc1cc(Nc2ncc(F)c(Nc3ccc4c(n3)NC(=O)C(C)(C)O4)n2)cc(OC)c1OC [R406] + Cc1nc(NC(=O)N2CCC[C@H]2C(N)=O)sc1-c1ccnc(C(C)(C)C(F)(F)F)c1 [Alpelisib] (partner 2 µM)
Outline: as §1

R406 + Palbociclib = compound: COc1cc(Nc2ncc(F)c(Nc3ccc4c(n3)NC(=O)C(C)(C)O4)n2)cc(OC)c1OC [R406] + CC(=O)c1c(C)c2cnc(Nc3ccc(N4CCNCC4)cn3)nc2n(C2CCCC2)c1=O [Palbociclib] (partner 0.5 µM)
Outline: as §1

Cell Line | relative viability (Daporinad + Pictilisib; first compound 0.0005 µM) | relative viability (Daporinad + Pictilisib; first compound 0.001581 µM) | relative viability (Daporinad + Pictilisib; first compound 0.005 µM) | relative viability (Daporinad + Pictilisib; first compound 0.01581 µM) | relative viability (Daporinad + Pemetrexed; first compound 0.0005 µM) | relative viability (Daporinad + Pemetrexed; first compound 0.001581 µM) | relative viability (Daporinad + Pemetrexed; first compound 0.005 µM) | relative viability (Daporinad + Pemetrexed; first compound 0.01581 µM) | relative viability (R406 + Alpelisib; first compound 0.08 µM) | relative viability (R406 + Alpelisib; first compound 0.253 µM) | relative viability (R406 + Alpelisib; first compound 0.8 µM) | relative viability (R406 + Alpelisib; first compound 2.53 µM) | relative viability (R406 + Alpelisib; first compound 8 µM) | relative viability (R406 + Palbociclib; first compound 0.08 µM) | relative viability (R406 + Palbociclib; first compound 0.253 µM) | relative viability (R406 + Palbociclib; first compound 0.8 µM) | relative viability (R406 + Palbociclib; first compound 2.53 µM) | relative viability (R406 + Palbociclib; first compound 8 µM)
NCI-H1666 | 0.508 | 0.482 | 0.456 | 0.494 | 0.902 | 0.839 | 0.862 | 0.806 | 1.11 | 0.953 | 1.02 | 0.786 | 0.385 | 0.653 | 0.662 | 0.678 | 0.675 | 0.638
NCI-H1734 | 0.454 | 0.529 | 0.557 | 0.431 | 0.473 | 0.422 | 0.425 | 0.353 | 0.67 | 0.732 | 0.748 | 0.521 | 0.465 | 0.359 | 0.372 | 0.376 | 0.346 | 0.243
NCI-H1755 | 0.442 | 0.44 | 0.452 | 0.457 | 0.421 | 0.397 | 0.454 | 0.469 | 0.834 | 1.05 | 1.04 | 0.632 | 0.21 | 0.419 | 0.456 | 0.422 | 0.421 | 0.397
NCI-H1792 | 0.212 | 0.317 | 0.25 | 0.377 | 0.721 | 1.02 | 0.76 | 0.674 | 0.626 | 0.665 | 0.752 | 0.541 | 0.563 | 0.603 | 0.721 | 0.708 | 0.506 | 0.518
NCI-H1793 | 0.221 | 0.354 | 0.38 | 0.32 | 0.727 | 1.03 | 1 | 1.05 | 1.08 | 0.691 | 0.921 | 0.434 | 0.32 | 0.352 | 0.309 | 0.253 | 0.28 | 0.153
NCI-H1915 | 0.967 | 1.15 | 1.13 | 0.929 | 0.474 | 0.505 | 0.499 | 0.174 | 1.08 | 1.12 | 1.04 | 1.02 | 1.01 | 0.536 | 0.567 | 0.529 | 0.488 | 0.521
NCI-H1944 | 0.366 | 0.346 | 0.389 | 0.34 | 0.607 | 0.716 | 0.706 | 0.577 | 0.758 | 0.84 | 0.757 | 0.652 | 0.512 | 0.333 | 0.312 | 0.329 | 0.252 | 0.241
NCI-H1975 | 0.267 | 0.333 | 0.315 | 0.304 | 0.3 | 0.313 | 0.31 | 0.256 | 0.624 | 0.598 | 0.682 | 0.276 | 0.157 | 0.537 | 0.734 | 0.644 | 0.115 | 0.192
NCI-H1993 | 0.925 | 0.684 | 0.798 | 0.869 | 0.54 | 0.561 | 0.644 | 0.567 | 0.692 | 0.741 | 0.772 | 0.653 | 0.599 | 0.651 | 0.667 | 0.611 | 0.683 | 0.607
NCI-H2009 | 0.784 | 1 | 0.938 | 0.661 | 1.04 | 1.01 | 0.872 | 0.545 | 1.18 | 1.22 | 1.24 | 1.05 | 1.05 | 0.232 | 0.212 | 0.265 | 0.192 | 0.114
NCI-H2023 | 0.252 | 0.3 | 0.245 | 0.278 | 0.224 | 0.231 | 0.267 | 0.202 | 0.541 | 0.572 | 0.685 | 0.409 | 0.474 | 0.359 | 0.355 | 0.359 | 0.174 | 0.106
NCI-H2085 | 0.438 | 0.463 | 0.526 | 0.554 | 0.843 | – | 0.994 | 1.04 | 0.971 | 1.02 | 1.05 | 0.829 | 0.612 | 0.468 | 0.459 | 0.45 | 0.455 | 0.36
NCI-H2087 | 0.877 | 1.1 | 0.951 | 0.907 | 0.675 | 0.739 | 0.711 | 0.764 | 0.959 | 1.06 | 1.11 | 1.09 | 0.757 | 0.231 | 0.26 | 0.26 | 0.23 | 0.243
NCI-H2126 | 0.529 | 0.516 | 0.485 | 0.486 | 0.644 | 0.68 | 0.694 | 0.7 | 0.721 | 0.851 | 0.75 | 0.723 | 0.625 | 0.347 | 0.357 | 0.313 | 0.349 | 0.276
NCI-H2170 | 0.315 | 0.331 | 0.301 | 0.407 | 0.277 | 0.25 | 0.252 | 0.252 | 0.783 | 0.773 | 0.904 | 0.576 | 0.714 | 0.379 | 0.393 | 0.452 | 0.264 | 0.419
NCI-H2228 | 0.342 | 0.358 | 0.495 | 0.464 | 0.342 | 0.307 | 0.304 | 0.406 | 0.702 | 0.735 | 0.9 | 0.618 | 0.161 | 0.728 | 1.07 | 0.688 | 0.244 | 0.427
NCI-H2347 | 0.636 | 0.788 | 0.711 | 0.685 | 0.441 | 0.402 | 0.472 | 0.454 | 0.984 | 1.15 | 1.12 | 0.791 | 0.856 | 0.423 | 0.415 | 0.453 | 0.446 | 0.406
